Converted amounts (≈) assume the structure as drawn. Where two headings read alike, the source gives them in different places.
Assays:
Details in all cases: Klebsiella pneumoniae
[1] = test system: K. pneumoniae NVT1001 ΔramRΔompK35/36 mutant and its revertants; test: Etest MIC, ΔramRΔompK35/36 mutant and its revertants (Table 7); format: cell-based
[2] = test system: K. pneumoniae NVT1001 strains with carbapenemase plasmids; test: Etest MIC of β-lactams, OmpK35/36 loss, ΔramR and/or carbapenemase (Table 9); format: cell-based, Klebsiella pneumoniae
How it was run: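 Cloned resistance genes in pACYC177 or pACYC184 were electroporated into K. pneumoniae NVT1001. MICs were determined by Etest and rounded up to the next two-fold value. Ceftazidime and cefotaxime against the blaOXA-48 construct were also tested by CLSI broth microdilution, with breakpoints from CLSI 2017 (cephalothin CLSI 2015, moxifloxacin EUCAST 2017).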

[3] = test system: K. pneumoniae NVT1001 and its ΔompK35/36 and/or ΔramR mutants; test: Etest MIC, OmpK35/36 loss and AcrAB-TolC overexpression (ΔramR) strains (Table 6); format: cell-based, Klebsiella pneumoniae
How it was run: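 Ceftazidime and cefotaxime were tested by CLSI broth microdilution on the blaOXA-48 pACYC177 transformant of NVT1001, using CLSI 2017 breakpoints. Parent, porin-deleted (ΔompK35/36) and ΔramR strains were tested by Etest, with values between two-fold dilutions rounded up.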

In the case of `CC(=O)OCC1=C(C(=O)O)N2C(=O)[C@@H](NC(=O)Cc3cccs3)[C@H]2SC1` [Cephalothin], the MIC ([1]; ΔramRΔompK35/36::ompK35/36 revertant) is reported as 64 µg/mL, the MIC ([1]; ΔramRΔompK35/36::ompK35 revertant) is reported as over 256 µg/mL and the MIC ([1]; ΔramRΔompK35/36::ompK36 revertant) is reported as 128 µg/mL. The MIC ([1]; ΔramRΔompK35/36::ramR revertant) was over 256 µg/mL, the MIC ([1]; ΔramRΔompK35/36::ramR::ompK35/36 revertant) was 8 µg/mL and the MIC ([1]; ΔramRΔompK35/36::ramR::ompK35 revertant) was 32 µg/mL. It also gave an MIC ([1]; ΔramRΔompK35/36::ramR::ompK36 revertant) of 8 µg/mL, an MIC ([1]; ΔramRΔompK35/36 mutant) of over 256 µg/mL and an MIC ([2]; IMP-8 on pACYC177, WT (NVT1001), read-out: MIC) of over 256 µg/mL. It also gave an MIC ([2]; IMP-8 on pACYC177, Δ35 (ΔompK35 mutant)) of over 256 µg/mL, an MIC ([2]; IMP-8 on pACYC177, Δ35/36 (ΔompK35/36 mutant)) of over 256 µg/mL and an MIC ([2]; IMP-8 on pACYC177, Δ36 (ΔompK36 mutant)) of over 256 µg/mL. The MIC ([2]; IMP-8 on pACYC177, ΔramR mutant) was over 256 µg/mL, the MIC ([2]; IMP-8 on pACYC177, ΔramRΔ35 (ΔramRΔompK35 mutant)) was over 256 µg/mL and the MIC ([2]; IMP-8 on pACYC177, ΔramRΔ35/36 (ΔramRΔompK35/36 mutant)) was over 256 µg/mL. For the same compound, the MIC ([2]; IMP-8 on pACYC177, ΔramRΔ36 (ΔramRΔompK36 mutant)) was over 256 µg/mL, the MIC ([2]; KPC-2 on pACYC177, WT (NVT1001), read-out: MIC) was over 256 µg/mL and the MIC ([2]; KPC-2 on pACYC177, Δ35 (ΔompK35 mutant)) was over 256 µg/mL. The MIC ([2]; KPC-2 on pACYC177, Δ35/36 (ΔompK35/36 mutant)) was over 256 µg/mL, the MIC ([2]; KPC-2 on pACYC177, Δ36 (ΔompK36 mutant)) was over 256 µg/mL and the MIC ([2]; KPC-2 on pACYC177, ΔramR mutant) was over 256 µg/mL. It also gave an MIC ([2]; KPC-2 on pACYC177, ΔramRΔ35 (ΔramRΔompK35 mutant)) of over 256 µg/mL, an MIC ([2]; KPC-2 on pACYC177, ΔramRΔ35/36 (ΔramRΔompK35/36 mutant)) of over 256 µg/mL and an MIC ([2]; KPC-2 on pACYC177, ΔramRΔ36 (ΔramRΔompK36 mutant)) of over 256 µg/mL. The MIC ([2]; KPC-3 on pACYC177, WT (NVT1001), read-out: MIC) was over 256 µg/mL, the MIC ([2]; KPC-3 on pACYC177, Δ35 (ΔompK35 mutant)) was over 256 µg/mL and the MIC ([2]; KPC-3 on pACYC177, Δ35/36 (ΔompK35/36 mutant)) was over 256 µg/mL. The MIC ([2]; KPC-3 on pACYC177, Δ36 (ΔompK36 mutant)) was over 256 µg/mL, the MIC ([2]; KPC-3 on pACYC177, ΔramR mutant) was over 256 µg/mL and the MIC ([2]; KPC-3 on pACYC177, ΔramRΔ35 (ΔramRΔompK35 mutant)) was over 256 µg/mL. It also gave an MIC ([2]; KPC-3 on pACYC177, ΔramRΔ35/36 (ΔramRΔompK35/36 mutant)) of over 256 µg/mL, an MIC ([2]; KPC-3 on pACYC177, ΔramRΔ36 (ΔramRΔompK36 mutant)) of over 256 µg/mL and an MIC ([2]; NDM-1 on pACYC177, WT (NVT1001), read-out: MIC) of over 256 µg/mL. For the same compound, the MIC ([2]; NDM-1 on pACYC177, Δ35 (ΔompK35 mutant)) was over 256 µg/mL, the MIC ([2]; NDM-1 on pACYC177, Δ35/36 (ΔompK35/36 mutant)) was over 256 µg/mL and the MIC ([2]; NDM-1 on pACYC177, Δ36 (ΔompK36 mutant)) was over 256 µg/mL. It also gave an MIC ([2]; NDM-1 on pACYC177, ΔramR mutant) of over 256 µg/mL, an MIC ([2]; NDM-1 on pACYC177, ΔramRΔ35 (ΔramRΔompK35 mutant)) of over 256 µg/mL and an MIC ([2]; NDM-1 on pACYC177, ΔramRΔ35/36 (ΔramRΔompK35/36 mutant)) of over 256 µg/mL. The MIC ([2]; NDM-1 on pACYC177, ΔramRΔ36 (ΔramRΔompK36 mutant)) was over 256 µg/mL, the MIC ([2]; OXA-48 on pACYC177, WT (NVT1001), read-out: MIC) was 256 µg/mL and the MIC ([2]; OXA-48 on pACYC177, Δ35 (ΔompK35 mutant)) was 256 µg/mL. The MIC ([2]; OXA-48 on pACYC177, Δ35/36 (ΔompK35/36 mutant)) was over 256 µg/mL, the MIC ([2]; OXA-48 on pACYC177, Δ36 (ΔompK36 mutant)) was over 256 µg/mL and the MIC ([2]; OXA-48 on pACYC177, ΔramR mutant) was over 256 µg/mL. For the same compound, the MIC ([2]; OXA-48 on pACYC177, ΔramRΔ35 (ΔramRΔompK35 mutant)) was over 256 µg/mL, the MIC ([2]; OXA-48 on pACYC177, ΔramRΔ35/36 (ΔramRΔompK35/36 mutant)) was over 256 µg/mL and the MIC ([2]; OXA-48 on pACYC177, ΔramRΔ36 (ΔramRΔompK36 mutant)) was over 256 µg/mL. The MIC ([2]; VIM-1 on pACYC177, WT (NVT1001), read-out: MIC) was over 256 µg/mL, the MIC ([2]; VIM-1 on pACYC177, Δ35 (ΔompK35 mutant)) was over 256 µg/mL and the MIC ([2]; VIM-1 on pACYC177, Δ35/36 (ΔompK35/36 mutant)) was over 256 µg/mL. It also gave an MIC ([2]; VIM-1 on pACYC177, Δ36 (ΔompK36 mutant)) of over 256 µg/mL, an MIC ([2]; VIM-1 on pACYC177, ΔramR mutant) of over 256 µg/mL and an MIC ([2]; VIM-1 on pACYC177, ΔramRΔ35 (ΔramRΔompK35 mutant)) of over 256 µg/mL. It also gave an MIC ([2]; VIM-1 on pACYC177, ΔramRΔ35/36 (ΔramRΔompK35/36 mutant)) of over 256 µg/mL, an MIC ([2]; VIM-1 on pACYC177, ΔramRΔ36 (ΔramRΔompK36 mutant)) of over 256 µg/mL and an MIC ([2]; no supplemental plasmid, WT (NVT1001), read-out: MIC) of 8 µg/mL. For the same compound, the MIC ([2]; no supplemental plasmid, Δ35 (ΔompK35 mutant)) was 8 µg/mL, the MIC ([2]; no supplemental plasmid, Δ35/36 (ΔompK35/36 mutant)) was 256 µg/mL and the MIC ([2]; no supplemental plasmid, Δ36 (ΔompK36 mutant)) was 16 µg/mL. The MIC ([2]; no supplemental plasmid, ΔramR mutant) was 64 µg/mL, the MIC ([2]; no supplemental plasmid, ΔramRΔ35 (ΔramRΔompK35 mutant)) was 64 µg/mL and the MIC ([2]; no supplemental plasmid, ΔramRΔ35/36 (ΔramRΔompK35/36 mutant)) was over 256 µg/mL. The MIC ([2]; no supplemental plasmid, ΔramRΔ36 (ΔramRΔompK36 mutant)) was over 256 µg/mL, the MIC ([3]; WT, NVT1001, read-out: MIC) was 8 µg/mL (≈ 20.2 µM) and the MIC ([3]; Δ35, ΔompK35 mutant) was 8 µg/mL (≈ 20.2 µM). For the same compound, the MIC ([3]; Δ35/36, ΔompK35/36 mutant) was 256 µg/mL (≈ 646 µM), the MIC ([3]; Δ36, ΔompK36 mutant) was 16 µg/mL (≈ 40.4 µM) and the MIC ([3]; ΔramR mutant) was 64 µg/mL (≈ 161 µM). The MIC ([3]; ΔramRΔ35, ΔramRΔompK35 mutant) was 64 µg/mL (≈ 161 µM), the MIC ([3]; ΔramRΔ35/36, ΔramRΔompK35/36 mutant) was over 256 µg/mL and the MIC ([3]; ΔramRΔ36, ΔramRΔompK36 mutant) was over 256 µg/mL.

Reference: patent US10760110B2, “Antibiotic testing and screening system” (priority 2017, dated 2020)
